Data: patent US20130177531A1, “Inhibitors of Serine Proteases” (Vertex Pharmaceuticals Incorporated, priority 2005, published 2013)

Legend:
[1] = Oral bioavailability and isomer interconversion of R and S isomers at C* in rats; design: species or system male Sprague Dawley rats; conditions: rat; for bioavailability / half-life: 30 mg/kg
Protocol: Three groups of male Sprague Dawley rats (n=6-7/group) were orally administered a compound of formula I wherein the mixture comprised about 92% R isomer at position C* and about 8% S isomer at position C*; a mixture that was about 7% R isomer at position C* and about 93% S isomer at position C*; or a compound of formula I wherein the mixture was about 54% R isomer at position C* and about 46% S isomer at position C*; at a nominal dose of 30 mg/kg. Serial blood samples were collected up to 24 hours (hr) post dose. Derived plasma samples (100 μL) were acidified by the addition of 5 μL of formic acid to prevent in vitro interconversion. The determination of concentrations of both the R isomer and the S isomer, at position C*, in plasma and in dose solutions was conducted using a chiral liquid chromatography/mass spectrometry (LC/MS/MS, e.g., LC/tandem mass spectroscopy) method. The formulations of the solid dispersions containing either 10% of the R:S mixture, the R isomer, or the S isomer were prepared according to Table 4. […] The sodium lauryl sulfate and PVP were added to the flask containing the drug solution and were then mixed until dissolved. The mixtures were dried under Roto-vap for about 15 min. After a dry powder was obtained, the solid was then scraped from the flask and transferred to a glass container. The solid was dried for 24 hr at 55° C. in a vacuum oven with nitrogen bleed. The dry solid was then milled by mortar and pestle and was stored in a tightly capped vial. […] Male Sprague Dawley rats (Charles River Laboratories, Kingston, R.I.; n=6-7/group) were used in the study. The day before dosing, the rats were cannulated in the carotid artery for collecting blood samples. […] The experiments were performed with a parallel study design as 6 separate single dose studies as described in Table 5. […] The blood samples were collected in tubes containing potassium EDTA and were centrifuged to plasma within 15 min of collection. A diluted solution of formic acid was prepared by diluting 1 mL of formic acid with 9 mL of water. A total of 5 micro liters (μL) of this diluted formic acid was placed into each plasma tube. An aliquot of plasma (100 μL per tube) was placed into appropriately labeled tubes containing the formic acid, and the acidified plasma was stored frozen at −70° C. until analysis. The acidification step was implemented to prevent in vitro interconversion. Referring to Table 6, several bioavailability parameters for compounds undergoing reversible metabolism could be estimated by the following descriptions.

in vivo = conditions: male, Sprague-Dawley, rat, iv
Protocol: The intravenous pharmacokinetics of compounds of formula I were evaluated in rats and dogs. A group of 3 male Sprague-Dawley rats weighing between 250 to 300 g was administered an intravenous bolus dose of 0.95 mg/kg of an S-diastereomer of formula I, in a vehicle consisting of 15% ethanol, 10% dimethyl isosorbide, 35% PEG400 and 40% D5W (5% dextrose in water). Serial blood samples were collected in heparinized tubes at 0 (pre-dose), 0.083, 0.167, 0.25, 0.5, 1, 1.5, 2, 3, 4, 6, and 8 h, post-dose administration. […] For oral studies in rats and dogs, an S-diastereomer compound of formula I was formulated in polyvinylpyrrolidone (PVP) K30 plus 2% sodium lauryl sulfate and then dosed as an oral gavage. A group of 3 male Sprague-Dawley rats (250 to 300 g, Harlan, Md.) was dosed orally with 40 mg/kg of the compound, and a group of 3 male Beagle dogs (10.9-12.0 kg) was administered an oral dose of 13.2 mg/kg of the compound. In both oral studies, blood samples were taken at pre-dose, 0.25, 0.5, 1, 1.5, 2, 3, 4, 6, 8, 12, and 24 h following dose administration. […] Samples obtained from the rat intravenous study were subjected to a chiral liquid chromatography/mass spectrometry (LC/MS/MS) analysis, while samples of all other studies were analyzed using a non-chiral LC/MS/MS method. […]

Row | FR+SR, estimated total bioavailability based on combined exposure to the R and S isomers following a dose of the R isomer ([1]; male, Sprague Dawley, in vivo) | mean (±SD) Tmax for the R isomer ([1]; male, Sprague Dawley, in vivo) | bioavailability ([1]; male, Sprague Dawley, in vivo) | half-life ([1]; male, Sprague Dawley, in vivo) | in vivo isomer conversion at position C* (R to S versus S to R) [1] | half-life (in vivo) | DN AUCINF of the S isomer ([1]; male, Sprague Dawley, in vivo) | mean (±SD) Tmax for the S isomer ([1]; male, Sprague Dawley, in vivo) | SMILES
1 | about 98% | 2.11 (−1.24) hr | 80.6% | 2.18 h | more prominent | 0.75 h | – | – | CCC[C@@H](NC(=O)[C@@H]1[C@H]2CCC[C@H]2CN1C(=O)[C@@H](NC(=O)[C@@H](NC(=O)c1cnccn1)C1CCCCC1)C(C)(C)C)C(=O)C(=O)NC1CC1 [R isomer at C*, (1S,3aR,6aS)-2-[(2S)-2-[[(2S)-2-cyclohexyl-1-oxo-2-[(pyrazinylcarbonyl)amino]ethyl]amino]-3,3-dimethyl-1-oxobutyl]-N-[(1R)-1-[2-(cyclopropylamino)-1,2-dioxoethyl]butyl]octahydro-cyclopenta[c]pyrrole-1-carboxamide]
2 | – | – | 42.9% | 3.6 h | – | 1.73 h | 140 ng·h/mL | 2.52 (±2.19) hr | CCC[C@H](NC(=O)[C@@H]1[C@H]2CCC[C@H]2CN1C(=O)[C@@H](NC(=O)[C@@H](NC(=O)c1cnccn1)C1CCCCC1)C(C)(C)C)C(=O)C(=O)NC1CC1 [S isomer at C*, (1S,3aR,6aS)-2-[(2S)-2-[[(2S)-2-cyclohexyl-1-oxo-2-[(pyrazinylcarbonyl)amino]ethyl]amino]-3,3-dimethyl-1-oxobutyl]-N-[(1S)-1-[2-(cyclopropylamino)-1,2-dioxoethyl]butyl]octahydro-cyclopenta[c]pyrrole-1-carboxamide]
